Data: the NIST ThermoML archive (doi:10.1016/j.fluid.2012.09.026)
Where “and” joins values, the source holds several entries; their conditions need not be identical. Identical values can stand only once.

What was measured:
[1] = for vapor or sublimation pressure: Closed cell (Static) method
[2] = molar heat capacity at constant volume; details: Vacuum adiabatic calorimetry

CCCCO [butan-1-ol]
[1], Liquid
Details	vapor or sublimation pressure
496.62 K	1529 kPa
497.54 K	1549 kPa
497.6 K	1555 kPa
497.65 K	1555 kPa
497.7 K	1559 kPa
497.97 K	1559 kPa
506.74 K	1834 kPa
506.84 K	1834 kPa
507.01 K	1854 kPa and 1844 kPa
507.23 K	1844 kPa
507.25 K	1844 kPa
507.3 K	1854 kPa
518.64 K	2241 kPa
518.91 K	2246 kPa
518.99 K	2248 kPa
519.06 K	2248 kPa
519.2 K	2252 kPa
528.31 K	2622 kPa
531.38 K	2776 kPa
532.65 K	2804 kPa
533.03 K	2834 kPa
533.2 K	2834 kPa
533.4 K	2838 kPa
537.47 K	3029 kPa
539.69 K	3127 kPa
541.16 K	3205 kPa
541.95 K	3245 kPa
542.81 K	3295 kPa
543.19 K	3293 kPa
543.3 K	3315 kPa
543.89 K	3315 kPa
546.79 K	3456 kPa
548.49 K	3579 kPa
550.45 K	3647 kPa
555.53 K	3983 kPa
555.6 K	3945 kPa
555.7 K	3941 kPa
556.16 K	3963 kPa
557.65 K	4075 kPa
559.05 K	4168 kPa
559.33 K	4181 kPa

Details	mass density [kg/m3]	molar heat capacity at constant volume [J/K/mol]	specific volume [m3/kg]
[1], 520 K, Gas, isochoric method	–	–	0.01653
[1], 520 K, Liquid, isochoric method	–	–	0.001879
[1], 530 K, Gas, isochoric method	–	–	0.01351
[1], 530 K, Liquid, isochoric method	–	–	0.001974
[1], 533.45 K, Gas, isochoric method	–	–	0.01243
[1], 533.45 K, Liquid, isochoric method	–	–	0.002001
[1], 540 K, Gas, isochoric method	–	–	0.01078
[1], 540 K, Liquid, isochoric method	–	–	0.002103
[1], 540.57 K, Liquid, Isochoric Breaking Point	470	–	–
[1], 547.36 K, Gas, Isochoric Breaking Point	113.76	–	–
[1], 550 K, Gas, isochoric method	–	–	0.008333
[1], 550 K, Liquid, isochoric method	–	–	0.002288
[1], 558.65 K, Gas, Isochoric Breaking Point	167.7	–	–
[1], 560 K, Gas, isochoric method	–	–	0.005682
[1], 560 K, Liquid, isochoric method	–	–	0.002717
[1], 561 K, Gas, isochoric method	–	–	0.005319
[1], 561 K, Liquid, isochoric method	–	–	0.002792
[1], 561.08 K, Liquid, Isochoric Breaking Point	345.9	–	–
[1], 561.85 K, Gas, Isochoric Breaking Point	203.9	–	–
[1], 562 K, Gas, isochoric method	–	–	0.004879
[1], 562 K, Liquid, isochoric method	–	–	0.002985
[1], 563 K, Gas, isochoric method	–	–	0.0046
[1], 563 K, Liquid, isochoric method	–	–	0.003108
[1], 563.04 K, Liquid, Isochoric Breaking Point	270	–	–
[2], 520 K, Gas, Specific volume=0.016529 m3/kg	–	236.45	–
[2], 520 K, Liquid, Specific volume=0.001879 m3/kg	–	220.88	–
[2], 530 K, Gas, Specific volume=0.013513 m3/kg	–	243.12	–
[2], 530 K, Liquid, Specific volume=0.001974 m3/kg	–	220.22	–
[2], 533.45 K, Gas, Specific volume=0.012425 m3/kg	–	246.16	–
[2], 533.45 K, Liquid, Specific volume=0.002001 m3/kg	–	220.22	–
[2], 540 K, Gas, Specific volume=0.010776 m3/kg	–	252.01	–
[2], 540 K, Liquid, Specific volume=0.002103 m3/kg	–	220.14	–
[2], 550 K, Gas, Specific volume=0.008333 m3/kg	–	260.91	–
[2], 550 K, Liquid, Specific volume=0.002288 m3/kg	–	220.88	–
[2], 560 K, Gas, Specific volume=0.005682 m3/kg	–	281.74	–
[2], 560 K, Liquid, Specific volume=0.002717 m3/kg	–	228.37	–
[2], 561 K, Gas, Specific volume=0.005319 m3/kg	–	286.85	–
[2], 561 K, Liquid, Specific volume=0.002792 m3/kg	–	235.71	–
[2], 562 K, Gas, Specific volume=0.004879 m3/kg	–	294.26	–
[2], 562 K, Liquid, Specific volume=0.002985 m3/kg	–	247.57	–
[2], 563 K, Gas, Specific volume=0.0046 m3/kg	–	303.9	–
[2], 563 K, Liquid, Specific volume=0.003108 m3/kg	–	258.68	–
[2], 563.21 K, Fluid (supercritical or subcritical phases), Mass density=270 kg/m3	–	356.16	–
[2], 563.39 K, Fluid (supercritical or subcritical phases), Mass density=270 kg/m3	–	317.24	–
[2], 563.57 K, Fluid (supercritical or subcritical phases), Mass density=270 kg/m3	–	306.86	–
[2], 564.81 K, Fluid (supercritical or subcritical phases), Mass density=270 kg/m3	–	294.63	–
[2], 564.99 K, Fluid (supercritical or subcritical phases), Mass density=270 kg/m3	–	292.04	–
[2], 565.17 K, Fluid (supercritical or subcritical phases), Mass density=270 kg/m3	–	290.19	–
[2], 566.6 K, Fluid (supercritical or subcritical phases), Mass density=270 kg/m3	–	282.4	–
[2], 566.77 K, Fluid (supercritical or subcritical phases), Mass density=270 kg/m3	–	280.18	–
[2], 566.95 K, Fluid (supercritical or subcritical phases), Mass density=270 kg/m3	–	279.81	–
[2], 567.13 K, Fluid (supercritical or subcritical phases), Mass density=270 kg/m3	–	277.59	–
[2], 569.09 K, Fluid (supercritical or subcritical phases), Mass density=270 kg/m3	–	269.8	–
[2], 569.26 K, Fluid (supercritical or subcritical phases), Mass density=270 kg/m3	–	269.06	–
[2], 569.44 K, Fluid (supercritical or subcritical phases), Mass density=270 kg/m3	–	268.32	–
[2], 573.52 K, Fluid (supercritical or subcritical phases), Mass density=270 kg/m3	–	259.06	–
[2], 573.67 K, Fluid (supercritical or subcritical phases), Mass density=270 kg/m3	–	257.94	–
[2], 582.51 K, Fluid (supercritical or subcritical phases), Mass density=270 kg/m3	–	246.83	–
[2], 582.69 K, Fluid (supercritical or subcritical phases), Mass density=270 kg/m3	–	246.08	–
[2], 582.86 K, Fluid (supercritical or subcritical phases), Mass density=270 kg/m3	–	246.08	–
[2], 583.22 K, Fluid (supercritical or subcritical phases), Mass density=270 kg/m3	–	245.34	–
[2], 590.92 K, Fluid (supercritical or subcritical phases), Mass density=270 kg/m3	–	240.15	–
[2], 591.07 K, Fluid (supercritical or subcritical phases), Mass density=270 kg/m3	–	240.52	–
[2], 591.23 K, Fluid (supercritical or subcritical phases), Mass density=270 kg/m3	–	239.41	–
[2], 591.62 K, Fluid (supercritical or subcritical phases), Mass density=270 kg/m3	–	239.41	–
[2], 598.76 K, Fluid (supercritical or subcritical phases), Mass density=270 kg/m3	–	235.34	–
[2], 599.1 K, Fluid (supercritical or subcritical phases), Mass density=270 kg/m3	–	236.08	–
[2], 599.28 K, Fluid (supercritical or subcritical phases), Mass density=270 kg/m3	–	235.71	–
[2], 599.63 K, Fluid (supercritical or subcritical phases), Mass density=270 kg/m3	–	234.97	–
[2], 605.17 K, Fluid (supercritical or subcritical phases), Mass density=270 kg/m3	–	232.74	–
[2], 605.35 K, Fluid (supercritical or subcritical phases), Mass density=270 kg/m3	–	232.37	–
[2], 606.21 K, Fluid (supercritical or subcritical phases), Mass density=270 kg/m3	–	232	–
[2], 606.56 K, Fluid (supercritical or subcritical phases), Mass density=270 kg/m3	–	232	–
[2], 609.49 K, Fluid (supercritical or subcritical phases), Mass density=270 kg/m3	–	231.26	–
[2], 609.67 K, Fluid (supercritical or subcritical phases), Mass density=270 kg/m3	–	230.52	–
[2], 609.84 K, Fluid (supercritical or subcritical phases), Mass density=270 kg/m3	–	230.89	–
[2], 621.18 K, Fluid (supercritical or subcritical phases), Mass density=270 kg/m3	–	227.55	–
[2], 621.53 K, Fluid (supercritical or subcritical phases), Mass density=270 kg/m3	–	226.81	–
[2], 622.22 K, Fluid (supercritical or subcritical phases), Mass density=270 kg/m3	–	226.07	–
[2], 637.42 K, Fluid (supercritical or subcritical phases), Mass density=270 kg/m3	–	225.33	–
[2], 637.77 K, Fluid (supercritical or subcritical phases), Mass density=270 kg/m3	–	223.11	–

[1], isochoric method
Details	mass density [kg/m3]
528.31 K, 2642 kPa, Gas	113.76
531.38 K, 2775 kPa, Gas	167.7
533.03 K, 2834 kPa, Gas	203.9
539.69 K, 3127 kPa, Gas	113.76
543.3 K, 3315 kPa, Gas	113.76
543.89 K, 3315 kPa, Gas	167.7
546.79 K, 3456 kPa, Gas	113.76
548.15 K, 3531 kPa, Gas	113.76
548.49 K, 3579 kPa, Gas	203.9
550.05 K, 4256 kPa, Liquid	470
550.45 K, 3647 kPa, Gas	167.7
551.66 K, 3610 kPa, Gas	113.76
555.53 K, 3893 kPa, Gas	167.7
555.7 K, 3941 kPa, Gas	203.9
557.65 K, 4020 kPa, Gas	167.7
558.64 K, 3788 kPa, Gas	113.76
559.33 K, 4118 kPa, Gas	203.9
561.09 K, 6138 kPa, Liquid	470
562.14 K, 4275 kPa, Gas	167.7
563.04 K, 4340 kPa, Gas	203.9
564.02 K, 4461 kPa, Liquid	270
565.29 K, 4559 kPa, Liquid	345.9
568.44 K, 4598 kPa, Gas	203.9
569.15 K, 4559 kPa, Gas	167.7
569.8 K, 4775 kPa, Liquid	270
572.54 K, 5138 kPa, Liquid	345.9
574.48 K, 4178 kPa, Gas	113.76
577.73 K, 5059 kPa, Gas	203.9
580.8 K, 5000 kPa, Gas	167.7
582.21 K, 5647 kPa, Liquid	270
583.19 K, 6118 kPa, Liquid	345.9
584.19 K, 10275 kPa, Liquid	470
588.79 K, 5613 kPa, Gas	203.9
590.87 K, 4586 kPa, Gas	113.76
593.16 K, 5452 kPa, Gas	167.7
593.16 K, 6393 kPa, Liquid	270
600.42 K, 6162 kPa, Gas	203.9
604.17 K, 5852 kPa, Gas	167.7
605.17 K, 4925 kPa, Gas	113.76
605.88 K, 7197 kPa, Liquid	270
606.77 K, 8197 kPa, Liquid	345.9
614.97 K, 6834 kPa, Gas	203.9
616.27 K, 6275 kPa, Gas	167.7
616.28 K, 5197 kPa, Gas	113.76
